The values that follow come from paper PMC9953095, “Design, Synthesis and Biological Evaluation of Quinazolinamine Derivatives as Breast Cancer Resistance Protein and P-Glycoprotein Inhibitors with Improved Metabolic Stability” (Biomolecules, 2023).

The subject of data set [1] is P-gp-mediated multidrug-resistant cell line KB-C2. Kind of data set: MTT reversal assay with paclitaxel, KB-C2 cells. The data set is classed as cell-based, human. As to conditions: Figure 5A. The protocol:
The human lung cancer cell line H460, and its MX-selected derivative BCRP-overexpressing cell line, H460/MX20, were used in this study. The KB-C2 cell line was selected by colchicine (Alfa Aesar, Haverhill, MA, USA) (2 μg/mL) with human cervical carcinoma cell line KB-3-1.
Cytotoxicity tests and reversal experiments were performed using the 3-(4,5-dimethylthiazol-2-yl)-2,5-diphenyltetrazolium bromide (MTT) colorimetric assay. Cells were seeded evenly into 96-well plates. […] To determine the MDR reversal efficacy of the quinazolinamine derivatives, an anticancer drug (mitoxantrone, colchicine, paclitaxel or cisplatin) was added into the designated wells after 2 h pre-incubation with a quinazolinamine derivative or a positive control inhibitor at non-toxic concentrations. After 72 h of drug incubation, the MTT reagent (4 mg/mL) was added into the wells, and then the plates were incubated for an additional 4 h. Subsequently, the supernatant was discarded and 100 µL of dimethyl sulfoxide (DMSO) was added to dissolve the formazan crystals. Cell viability was determined by measuring the absorbance by using an accuSkan™ GO UV/Vis Microplate Spectrophotometer (Fisher Sci., Fair Lawn, NJ, USA) at a wavelength of 570 nm.
A general note: Tetrazolium assays rely on reduction of a dye to a coloured formazan, in cell work by metabolically active cells.

The subject of data set [2] is H460 cells. Kind of data set: [3H]-mitoxantrone accumulation assay, H460. The data set is classed as cell-based, human. Particulars: parental H460 cells; compound 5 μM; Figure 6A. The protocol: To determine the accumulation of drugs on H460, H460/MX20, KB-3-1, and KB-C2 cells, the cells ([…] cells/well) were seeded in the 24-well plates and incubated at 37 °C with 5% CO2 [17]. After 12 h of incubation, a test compound (5 µM) was added and the plates were incubated at 37 °C for 2 h. Cells were then incubated with 0.01 µM [^3H]-MX or [^3H]-paclitaxel-containing medium for an additional 2 h at 37 °C, with or without a test compound. The cells were washed twice with ice-cold phosphate-buffered saline (PBS), trypsinized and lysed at the end of incubation. The radioactivity was measured using the Packard TRICARB1 1900A liquid scintillation analyzer.

Data set [3] deals with P-gp protein in KB-C2 cells. Kind of data set: Western blot of P-gp expression in KB-C2 cells. It counts as cell-based, human. The protocol: (§1) Cells in T25 flask were washed with ice-cold PBS. Lysis buffer (100 µL) was added into T25 flask. Using a cell scraper, scrape adherent cells were scraped off the flask and the cell suspension was transferred into a microcentrifuge tube (1.5 mL). Cells were agitated for 20 min at 4 °C and cell lysate was centrifuged mixture at 4 °C for 20 min at 12,000 rpm. The supernatant (lysate) was used for the gel electrophoresis. Equal amounts of total cell lysates (20 µg protein) were resolved by sodium dodecyl sulfate polyacrylamide gel electrophoresis (SDS-PAGE) and electrophoretically transferred onto polyvinylidene fluoride (PVDF) membranes. After incubation in a blocking solution (5% milk) for 2 h at room temperature, the membranes were incubated overnight with primary monoclonal antibodies against GAPDH (GA1R) (Invitrogen, Carlsbad, CA, USA) at 1:1000 dilution of BCRP protein (BXP 21) (Sigma-Aldrich, Inc., St. Louis, MO, USA) (1:1000) or P-gp (F4) (Sigma-Aldrich, Inc., St. Louis, MO, USA) at 4 °C, and were further incubated with horseradish […] (HRP)-conjugated secondary antibody (Thermo Fisher Scientific Inc., Waltham, MA, USA) at 1:1000 dilution for 2 h at room temperature. The protein antibody complex was detected using an enhanced chemiluminescence detection system. The grayscale ratio was analyzed by ImageJ and normalized by the grayscale of the ABC protein divided by that of GAPDH.
(A western blot detects proteins with antibodies after separation by electrophoresis.)

Data set [4] deals with T1, P-gp ATPase (Homo sapiens, UniProt P08183).
T1 construct: host or cells: High Five insect cells (membrane vesicles)
T1 sequence (P08183 whole entry): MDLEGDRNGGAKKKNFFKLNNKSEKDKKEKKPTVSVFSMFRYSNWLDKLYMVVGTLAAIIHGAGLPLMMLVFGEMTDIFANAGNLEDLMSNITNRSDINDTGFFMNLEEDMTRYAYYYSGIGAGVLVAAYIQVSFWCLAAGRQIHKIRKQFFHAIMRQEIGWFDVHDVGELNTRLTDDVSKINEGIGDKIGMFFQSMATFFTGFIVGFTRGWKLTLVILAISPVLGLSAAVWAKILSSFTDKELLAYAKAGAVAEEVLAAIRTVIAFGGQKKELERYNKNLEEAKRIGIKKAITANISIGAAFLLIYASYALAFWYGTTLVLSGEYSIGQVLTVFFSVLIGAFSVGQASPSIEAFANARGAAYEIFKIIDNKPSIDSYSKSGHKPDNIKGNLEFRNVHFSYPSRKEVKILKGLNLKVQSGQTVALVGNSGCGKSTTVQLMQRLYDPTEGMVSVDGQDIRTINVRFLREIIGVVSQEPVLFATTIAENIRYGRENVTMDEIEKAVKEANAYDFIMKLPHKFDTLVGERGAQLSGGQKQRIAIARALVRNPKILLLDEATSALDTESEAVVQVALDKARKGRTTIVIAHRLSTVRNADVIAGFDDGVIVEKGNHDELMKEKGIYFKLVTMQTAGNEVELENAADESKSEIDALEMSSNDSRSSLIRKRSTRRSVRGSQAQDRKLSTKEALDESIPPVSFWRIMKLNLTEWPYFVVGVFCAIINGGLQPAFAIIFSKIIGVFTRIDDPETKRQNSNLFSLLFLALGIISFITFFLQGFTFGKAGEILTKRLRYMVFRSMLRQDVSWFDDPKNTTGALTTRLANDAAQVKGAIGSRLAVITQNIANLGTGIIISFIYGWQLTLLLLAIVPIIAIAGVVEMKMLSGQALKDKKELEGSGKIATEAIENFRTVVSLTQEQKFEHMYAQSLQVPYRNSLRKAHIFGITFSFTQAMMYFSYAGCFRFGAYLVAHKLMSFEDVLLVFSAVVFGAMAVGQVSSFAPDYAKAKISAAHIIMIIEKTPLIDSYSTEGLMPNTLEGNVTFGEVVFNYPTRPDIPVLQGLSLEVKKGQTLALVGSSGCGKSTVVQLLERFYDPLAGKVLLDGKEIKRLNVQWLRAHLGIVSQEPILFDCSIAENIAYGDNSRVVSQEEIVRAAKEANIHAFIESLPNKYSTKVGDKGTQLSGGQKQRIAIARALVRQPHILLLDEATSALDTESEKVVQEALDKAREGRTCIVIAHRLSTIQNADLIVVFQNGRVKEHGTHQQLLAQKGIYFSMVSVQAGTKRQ
The experiment in a line: Vanadate-sensitive P-gp ATPase assay. The data set is classed as biochemical. As to conditions: membrane vesicles of High Five insect cells; Figure 10C. On the procedure: The vanadate (Vi)-sensitive ATPase activity of BCRP and P-gp in the membrane vesicles of High Five insect cells was measured as described previously. The results were presented as vanadate-sensitive ATPase activities by determining the difference in inorganic phosphate liberation measured in the presence and absence of sodium orthovanadate.

In data set [5] the test system is BCRP protein in H460/MX20 cells. Kind of data set: Western blot of BCRP expression in H460/MX20 cells. It counts as cell-based, human. On the procedure:
as §1

The nature of data set [6]: Metabolic stability with human liver microsomes. Note: tested at 200 µM. It counts as in vitro ADME. Particulars: after 1 h of incubation with human liver microsomes, 37 °C, NADPH. The protocol:
Human liver microsome (20 mg/mL) 6.25 µL, nicotinamide adenine dinucleotide phosphate (NADPH) (0.75 µmol), MgCl2 (0.75 µmol), and the test compound (0.05 µmol) were added into a potassium phosphate buffer (pH 7.4) with 250 µL of final volume. The incubation was carried out aerobically at 37 °C. The mixture was pre-incubated without NADPH for 10 min at 37 °C and NADPH was added to start the reaction. At 1 h after the start of the reaction, an aliquot (50 µL) of the incubation mixture was taken from each incubation and mixed with 150 µL of ice-cold acetonitrile to terminate the reaction. Subsequently, the sample was centrifuged (12,000 rpm) at room temperature. The resulting supernatant was filtered and analyzed using HPLC (LC, Agilent 1200; column, HC-C18(2); column temperature, 25 °C; mobile phase, solvent A, methanol, solvent B, water; gradient elution, 30–99% solvent A; flow rate, 1 mL/min; UV signals were recorded at 254 nm).

The structures appear in SMILES notation. “And” between values parts separate entries of the source, which are not always exact repeats. Equal entries are not always repeated.

On to `c1ccc2c(Nc3ccc(C4CC4)cc3)nc(-c3ccncc3)nc2c1` [Compound 22, N-(4-Cyclopropylphenyl)-2-(pyridin-4-yl)quinazolin-4-amine], for which the sensitization to paclitaxel entry in data set [1] is given as “could sensitize KB-C2 cells”. Besides, the accumulation of mitoxantrone entry in data set [2] is given as “slightly increase”. Moreover, in data set [3] (KB-C2 cytoplasm fraction, Figure 9D), the “cytoplasmic P-gp expression level” value is recorded as “slightly increased”. The “expression level of the P-gp protein on the membrane” value in data set [3] (KB-C2 membrane fraction, Figure 9C) is “slightly decreased”. Moreover, the P-gp protein expression entry in data set [3] (KB-C2 total cell lysate, Figure 7B) is reported as “nor did it change the P-gp protein expression”. Further, the “effect on Vi-sensitive P-gp ATPase activity” value in data set [4] is on record as “neither stimulate or inhibit”. For the same compound, in data set [5] (H460/MX20 cytoplasm fraction, Figure 9B), the “BCRP protein expression level in the cytoplasm” value is recorded as “increased”. Further, the “expression level of BCRP protein on the membrane” value in data set [5] (H460/MX20 membrane fraction, Figure 9A) is reported as “decreased”. Also, the “expression level of BCRP protein” value in data set [5] (H460/MX20 total cell lysate, Figure 7) is reported as “did not change the expression level”. For the same compound, in data set [6], the “Metabolic Stability, % compound remaining” value was 92% and 92 ± 8%.
